Results taken from patent publication US20240115663A1, “COMPOSITIONS COMPRISING AT LEAST AN INSULIN AND AN AMYLIN RECEPTOR AGONIST FOR TREATING DIABETES, IN A PATIENT/PERSON HAVING A BMI OF MORE THAN 28 KG/M² AND/OR AN HBA1C OF MORE THAN 7.6%” (ADOCIA, priority 2022, published 2024).

Assay: Phase 2 clinical trial of M1Pram vs Humalog in subjects with type 1 diabetes: body weight change after 16 weeks
Assay type: in vivo, human
Procedure: A phase 2 clinical trial was conducted to confirm the efficacy and safety of M1Pram in subjects with type 1 diabetes (NCT04816890).
The primary objective of the trial was to compare the efficacy of prandial use of M1Pram to Humalog® (insulin lispro) on body weight change after 16 weeks of optimised titration, in combination with a basal insulin.
In addition, exploratory objectives included the comparison of the efficacy of prandial use of M1Pram with Humalog® in subgroups of subjects with a body mass index (BMI) and HbA1c above and below the median at screening.
A post-hoc analysis also included the comparison of the efficacy of prandial use of M1Pram with Humalog® in subgroups of subjects with a body mass index (BMI)>=30 kg/m^2.
The primary endpoint was the body weight change from baseline to week 16 of treatment.
In addition, exploratory endpoints included analysis of the subgroups of the primary endpoint according to BMI and HbA1c below and above the median.
A post-hoc analysis was also performed to analyze the subgroups of the primary endpoint according to BMI>=30 kg/m^2.
This was a multicentric, open-label, randomized, two-arm parallel, active-comparator controlled phase 2 clinical trial evaluating the efficacy and safety of M1Pram in subjects with type 1 diabetes.
Key inclusion criteria included subjects • with T1D • aged between 18 and 64 years • with a Body Mass Index (BMI) between 25.0 and 35.0 kg/m^2, both inclusive, • with HbA1c between 7.0% and 9.5%, both inclusive • with a Diabetes duration of at least 12 months • Using a multiple dosing insulin therapy (MDI) with a basal insulin and a rapid-acting insulin • having at least two meals per day.
80 patients were randomized 1:1 to M1Pram or Humalog®.
The trial consisted in 4 periods: • an optional a run-in period of 2 to 4 weeks for patients not already using the Continuous Glucose Monitoring (CGM) system used in the trial or either insulin degludec or insulin glargine as basal insulins • a 3-week baseline data recording period • after randomization, a treatment period of about 16 weeks (W1 to 16) • and a safety follow-up period of 1 to 2 weeks after the last product administration.
37 subjects completed the trial in the Humalog® arm and 34 in the M1 Pram arm. The subgroups were selected depending on the patients' metrics at screening.

With insulin lispro [Humalog ®] the “Mean BW change in kg (SD)” value (All completers, baseline to week 16 of treatment, T1D subjects, prandial use with basal insulin) was −0.45 (3.12) kg, the “Mean BW change in kg (SD)” value (Subgroup BMI <= 28 kg/m^2 at screening, baseline to week 16) was −0.69 (3.19) kg and the “Mean BW change in kg (SD)” value (Subgroup BMI > 28 kg/m^2 at screening, baseline to week 16) was −0.17 (3.09) kg. The “Mean BW change in kg (SD)” value (Subgroup BMI >= 30 kg/m^2 (post-hoc), baseline to week 16) was −0.57 (3.60) kg, the “Mean BW change in kg (SD)” value (Subgroup HbA1c <= 7.6% at screening, baseline to week 16) was −0.87 (2.20) kg and the “Mean BW change in kg (SD)” value (Subgroup HbA1c > 7.6% at screening, baseline to week 16) was 0.04 (3.95) kg.
